The source made the active and inactive calls. The rule behind the calls is not given here.
Assays:
[1] = tested on: HT-29; test: Inhibition of carbonic anhydrase 1 expression in human HT-29 cells at 2.5 to 10 uM after 18 hrs by Western blot analysis; format: functional, cell-based
[2] = tested on: SW-620; test: Antiproliferative activity against human SW620 cells assessed as inhibition of cell viability at 5 to 10 uM after 24 hrs by trypan blue assay; format: functional, cell-based
[3] = tested on: HT-29; test: Antiproliferative activity against human HT-29 cells assessed as inhibition of cell viability after 24 hrs by trypan blue assay; format: functional, cell-based
[4] = tested on: HT-29; test: Inhibition of carbonic anhydrase 12 expression in human HT-29 cells after 18 hrs by Western blot analysis; format: functional, cell-based
[5] = tested on: HT-29; test: Inhibition of carbonic anhydrase 2 expression in human HT-29 cells at 2.5 to 10 uM after 18 hrs by Western blot analysis; format: functional, cell-based
[6] = tested on: HT-29; test: Inhibition of carbonic anhydrase 9 expression in human HT-29 cells after 18 hrs by Western blot analysis; format: functional, cell-based
[7] = tested on: HT-29; test: Antiproliferative activity against human HT-29 cells assessed as inhibition of cell viability at 10 uM by trypan blue assay; format: functional, cell-based; conditions: TDE = time-dependent effect
[8] = tested on: HT-29; test: Antiproliferative activity against human HT-29 cells assessed as cell viability at 10 uM after 24 hrs by trypan blue assay; format: functional; conditions: HT-29, 24 h, read-out: Activity

**Q.** With NS(=O)(=O)c1ccc(Nc2nc(-c3ccc(Cl)cc3)nc3ccccc23)cc1 as the compound, how does the inhibition [1] read?
**A.** inactive

**Q.** What about the inhibition [2] of the same compound?
**A.** Active

**Q.** And the inhibition [3]?
**A.** Dose-dependent effect

**Q.** What about the IC50 ([3]; HT-29, 24 h) of the same compound?
**A.** 5.45 µM

**Q.** And the inhibition [4]?
**A.** Dose-dependent effect

**Q.** What about the inhibition [5] of the same compound?
**A.** inactive

**Q.** What about the inhibition [6] of the same compound?
**A.** Dose-dependent effect

**Q.** What about the inhibition [7] of the same compound?
**A.** tde

**Q.** What about the viability at 10 µM [8] of the same compound?
**A.** 12%

Reference: ChEMBL document CHEMBL3758155, “Development of certain new 2-substituted-quinazolin-4-yl-aminobenzenesulfonamide as potential antitumor agents” (Eur J Med Chem, 2016)
